What was measured:
[1] = tested on: Plasmodium falciparum; assay: MMV: Inhibition of Plasmodium falciparum 3D7 at 5uM compound concentration.; assay type: functional
[2] = tested on: Trypanosoma cruzi; assay: MMV: Inhibition of Trypanosoma cruzi (Tulahuen C4 LacZ) (Chagas in vitro).; assay type: functional, organism-based
[3] = tested on: Trypanosoma brucei rhodesiense; assay: MMV: Inhibition of Trypanosoma brucei rhodesiense (STIB 900) (HAT in vitro).; assay type: functional, organism-based
[4] = tested on: Trypanosoma brucei brucei; assay: MMV: Inhibition of Trypanosoma brucei brucei (Squib 427) (HAT in vitro).; assay type: functional, organism-based
[5] = tested on: Plasmodium falciparum; assay: MMV: Inhibition of Plasmodium falciparum 3D7 (EC50).; assay type: functional, organism-based
[6] = MMV: Cytotoxicity against human fibroblasts (MRC-5) cells.; settings: MRC-5 cells (human fibroblasts)
[7] = tested on: Leishmania infantum; assay: MMV: Inhibition of Leishmania infantum (MHOM/MA/BE/67) in vitro.; assay type: functional, organism-based

Compound: O=[N+]([O-])c1ccc(C=NNc2nc3ccccc3[nH]2)cc1
- inhibition at 5 µM [1]: 99%
- IC50 [2]: > 32 µM
- IC50 [3]: > 32 µM
- IC50 [4]: > 32 µM
- EC50 [5]: 0.142 µM
- IC50 [6]: > 32 µM
- IC50 [7]: 16.2 µM

Compound: CCOC(=O)c1cnc2c(C)cc(C)cc2c1Nc1ccc(OC)c(OC)c1
- inhibition at 5 µM [1]: 96%
- IC50 [2]: > 32 µM
- IC50 [3]: > 32 µM
- IC50 [4]: > 32 µM
- EC50 [5]: 0.232 µM
- IC50 [6]: > 32 µM
- IC50 [7]: > 32 µM

Compound: Cc1ccc2cc3c(N)c4c(C)ccc(C)c4nc3nc2c1
- inhibition at 5 µM [1]: 98%
- IC50 [2]: 4.56 µM
- IC50 [3]: 1.19 µM
- IC50 [4]: 4.09 µM
- EC50 [5]: 1.31 µM
- IC50 [6]: 11.4 µM
- IC50 [7]: 4.32 µM

Compound: CC1=C(CC(=O)c2cccc([N+](=O)[O-])c2)C(=O)c2ccccc2C1=O
- inhibition at 5 µM [1]: 95%
- IC50 [2]: 13.4 µM
- IC50 [3]: 16 µM
- IC50 [4]: 14.5 µM
- EC50 [5]: 0.381 µM
- IC50 [6]: > 32 µM
- IC50 [7]: > 32 µM

Compound: COc1ccc2nc(C)cc(Nc3cccc(O)c3)c2c1
- inhibition at 5 µM [1]: 98%
- IC50 [2]: 15 µM
- IC50 [3]: 5.08 µM
- IC50 [4]: 4.41 µM
- EC50 [5]: 0.969 µM
- IC50 [6]: > 32 µM
- IC50 [7]: 16 µM

Compound: Cc1cc(N2CCCC2)nc(Nc2ccc(NC(=O)CCc3ccccc3)cc2)n1
- IC50 [2]: 1.01 µM
- IC50 [3]: 0.871 µM
- IC50 [4]: 4.3 µM
- EC50 [5]: 1.07 µM
- IC50 [6]: 5.38 µM
- IC50 [7]: 1.19 µM

Compound: O=C(O)C1Cc2c([nH]c3ccccc23)C(c2ccc(Cl)cc2Cl)N1 (stereo not drawn)
- IC50 [2]: > 32 µM
- IC50 [3]: > 32 µM
- IC50 [4]: > 32 µM
- EC50 [5]: 0.35 µM
- IC50 [6]: > 32 µM
- IC50 [7]: > 32 µM

Compound: CCOc1ccccc1CN1CCc2nc3cc(C(C)(C)C)nn3c(O)c2C1
- IC50 [2]: > 32 µM
- IC50 [3]: > 32 µM
- IC50 [4]: 28.9 µM
- EC50 [5]: 1.01 µM
- IC50 [6]: > 32 µM
- IC50 [7]: > 32 µM

Compound: COc1ccc(CCN2C(=O)c3[nH]nc(-c4cc(Cl)c(C)cc4O)c3C2c2ccccc2F)cc1 (stereo not drawn)
- IC50 [2]: 12.9 µM
- IC50 [3]: 3.56 µM
- IC50 [4]: 4 µM
- EC50 [5]: 0.916 µM
- IC50 [6]: > 32 µM
- IC50 [7]: 12 µM

Compound: COc1ccc(-c2nc(N3CCN(C(=O)C4CCCCC4)CC3)c3c4c(sc3n2)CCCC4)cc1
- IC50 [2]: 7.45 µM
- IC50 [3]: 4.07 µM
- IC50 [4]: 4.09 µM
- EC50 [5]: 1.06 µM
- IC50 [6]: > 32 µM
- IC50 [7]: 4.32 µM

Compound: COc1ccc(Nc2cc(C)nc(NCc3ccccc3)n2)cc1
- IC50 [2]: 1.04 µM
- IC50 [3]: 3.86 µM
- IC50 [4]: 2.95 µM
- EC50 [5]: 0.467 µM
- IC50 [6]: 13.5 µM
- IC50 [7]: 4.32 µM

Compound: COC(=O)c1ccc(Cl)c2c1C1C=CCC1C(c1cccc3ccccc13)N2 (stereo not drawn)
- IC50 [2]: 13.5 µM
- IC50 [3]: 11.9 µM
- IC50 [4]: 16 µM
- EC50 [5]: 0.939 µM
- IC50 [6]: > 32 µM
- IC50 [7]: 17.3 µM

Compound: Cc1cc(Nc2ccc3ccccc3c2)n2ncnc2n1
- IC50 [2]: > 32 µM
- IC50 [3]: > 32 µM
- IC50 [4]: > 32 µM
- EC50 [5]: 0.242 µM
- IC50 [6]: > 32 µM
- IC50 [7]: > 32 µM

Compound: Clc1ccc2[nH]c3c(NCCCN4CCOCC4)ncnc3c2c1
- IC50 [2]: 21.3 µM
- IC50 [3]: 3.94 µM
- IC50 [4]: > 32 µM
- EC50 [5]: 0.7 µM
- IC50 [6]: > 32 µM
- IC50 [7]: > 32 µM

Compound: CCOC(=O)c1c(C)n(-c2ccccc2)c2ccc(OC(=O)c3cc(OC)c(OC)c(OC)c3)cc12
- IC50 [2]: 13.3 µM
- IC50 [3]: 10.8 µM
- IC50 [4]: 16.2 µM
- EC50 [5]: 0.615 µM
- IC50 [6]: 26.4 µM
- IC50 [7]: > 32 µM

Compound: CCN(CC)CCNc1ncnc2c1[nH]c1ccc(Br)cc12
- IC50 [2]: 17.1 µM
- IC50 [3]: 16 µM
- IC50 [4]: 16.3 µM
- EC50 [5]: 0.707 µM
- IC50 [6]: > 32 µM
- IC50 [7]: 16 µM

Compound: CCOC(=O)c1cnc2ccc(CC)cc2c1O
- IC50 [2]: > 32 µM
- IC50 [3]: > 32 µM
- IC50 [4]: > 32 µM
- EC50 [5]: 0.351 µM
- IC50 [6]: > 32 µM
- IC50 [7]: > 32 µM

Compound: Cc1cc(Nc2ccc(Cl)cc2)n2nc(C(F)(F)F)nc2n1
- IC50 [2]: > 32 µM
- IC50 [3]: > 32 µM
- IC50 [4]: > 32 µM
- EC50 [5]: 0.212 µM
- IC50 [6]: > 32 µM
- IC50 [7]: > 32 µM

Compound: N=c1n(CCN2CCCCC2)c2ccccc2n1CC(=O)c1ccc(Cl)c(Cl)c1
- IC50 [2]: 4.48 µM
- IC50 [3]: 1.1 µM
- IC50 [4]: 4 µM
- EC50 [5]: 1.24 µM
- IC50 [6]: 10.6 µM
- IC50 [7]: 4.06 µM

Compound: CC1(c2ccccc2)Nc2ccccc2-c2nc3ccccc3n21 (stereo not drawn)
- IC50 [2]: 19.1 µM
- IC50 [3]: 10.3 µM
- IC50 [4]: 17.1 µM
- EC50 [5]: 1.73 µM
- IC50 [6]: > 32 µM
- IC50 [7]: > 32 µM

Compound: CCN1CCCC1CNc1[nH]cnc2c3cc(Cl)ccc3nc1-2 (stereo not drawn)
- IC50 [2]: > 32 µM
- IC50 [3]: > 32 µM
- IC50 [4]: > 32 µM
- EC50 [5]: 0.218 µM
- IC50 [6]: > 32 µM
- IC50 [7]: 16.2 µM

Compound: CC(C)(C)CC(C)(C)NCC(O)COc1ccc(Cl)cc1Cl (stereo not drawn)
- IC50 [2]: 12.2 µM
- IC50 [3]: 4.06 µM
- IC50 [4]: 4 µM
- EC50 [5]: 1.16 µM
- IC50 [6]: 16.1 µM
- IC50 [7]: 6.35 µM

Compound: CCN(CC)CCNc1ccnc2cc3ccccc3cc12
- IC50 [2]: 14.8 µM
- IC50 [3]: 3.94 µM
- IC50 [4]: 4.06 µM
- EC50 [5]: 0.391 µM
- IC50 [6]: 12.2 µM
- IC50 [7]: 4.32 µM

Compound: Cc1sc(NC(=O)c2ccco2)c(C(c2cccnc2)N2CCC(Cc3ccccc3)CC2)c1C (stereo not drawn)
- IC50 [2]: 1.36 µM
- IC50 [3]: 3.97 µM
- IC50 [4]: 3.94 µM
- EC50 [5]: 1.02 µM
- IC50 [6]: > 32 µM
- IC50 [7]: 16.2 µM

Compound: COc1ccc(-c2cc3c(SCC(=O)Nc4cc(C(F)(F)F)ccc4Cl)nccn3n2)cc1
- IC50 [2]: > 32 µM
- IC50 [3]: > 32 µM
- IC50 [4]: > 32 µM
- EC50 [5]: 0.0899 µM
- IC50 [6]: > 32 µM
- IC50 [7]: 16.2 µM

Compound: N#Cc1nc(Cc2cccc3ccccc23)oc1N1CCN(C(c2ccccc2)c2ccccc2)CC1
- IC50 [2]: > 32 µM
- IC50 [3]: 15.7 µM
- IC50 [4]: > 32 µM
- EC50 [5]: 1.16 µM
- IC50 [6]: > 32 µM
- IC50 [7]: 25.4 µM

Compound: COCCNCC(O)Cn1c2ccc(Cl)cc2c2cc(Cl)ccc21 (stereo not drawn)
- IC50 [2]: 3.89 µM
- IC50 [3]: 0.357 µM
- IC50 [4]: 0.711 µM
- EC50 [5]: 1.01 µM
- IC50 [6]: 4.81 µM
- IC50 [7]: 2.97 µM

Compound: CN1CCN(c2ncnc3c2[nH]c2ccc(Cl)cc23)CC1
- IC50 [2]: 30.8 µM
- IC50 [3]: 11 µM
- IC50 [4]: 14.6 µM
- EC50 [5]: 1.19 µM
- IC50 [6]: > 32 µM
- IC50 [7]: 21.5 µM

Compound: CC(C)CNC(=O)c1c(N)n(CCc2ccccc2F)c2nc3ccccc3nc12
- IC50 [2]: > 32 µM
- IC50 [3]: > 32 µM
- IC50 [4]: > 32 µM
- EC50 [5]: 0.832 µM
- IC50 [6]: > 32 µM
- IC50 [7]: > 32 µM

Compound: COc1ccc2c(c1)C1(Nc3ccccc3-c3nc4ccccc4n31)C(=O)N2 (stereo not drawn)
- IC50 [2]: > 32 µM
- IC50 [3]: > 32 µM
- IC50 [4]: > 32 µM
- EC50 [5]: 0.928 µM
- IC50 [6]: > 32 µM
- IC50 [7]: > 32 µM

Compound: Cc1ccc(Nc2nc(NCCO)c3ccccc3n2)cc1C
- IC50 [2]: 2.99 µM
- IC50 [3]: 3.83 µM
- IC50 [4]: 8.22 µM
- EC50 [5]: 0.428 µM
- IC50 [6]: 11.4 µM
- IC50 [7]: 2.52 µM

Compound: O=C(NCC(c1ccsc1)N1CCCCCC1)c1ccc(C(F)(F)F)cc1 (stereo not drawn)
- IC50 [2]: 22.5 µM
- IC50 [3]: 1.7 µM
- IC50 [4]: 16.1 µM
- EC50 [5]: 0.433 µM
- IC50 [6]: > 32 µM
- IC50 [7]: 16.1 µM

Compound: CN1CCN(c2nc(Nc3ccc(O)cc3)nc3ccccc23)CC1
- IC50 [2]: 11.1 µM
- IC50 [3]: 3.28 µM
- IC50 [4]: 4.69 µM
- EC50 [5]: 1.43 µM
- IC50 [6]: > 32 µM
- IC50 [7]: 13.6 µM
